From US7045526B2, “Substituted 4-amino-2-aryl-tetrahydroquinazolines, their preparation, their use and pharmaceutical preparations comprising them” (Sanofi-Aventis Deutschland GmbH, priority 1999, dated 2006)

Target: T1, soluble guanylate cyclase (sGC) (Bos taurus, UniProt P16068+P19687)
T1 construct: The sGC employed had been isolated from bovine lung; from tissue; host or cells: bovine lung
T1 sequence (P16068 1-619): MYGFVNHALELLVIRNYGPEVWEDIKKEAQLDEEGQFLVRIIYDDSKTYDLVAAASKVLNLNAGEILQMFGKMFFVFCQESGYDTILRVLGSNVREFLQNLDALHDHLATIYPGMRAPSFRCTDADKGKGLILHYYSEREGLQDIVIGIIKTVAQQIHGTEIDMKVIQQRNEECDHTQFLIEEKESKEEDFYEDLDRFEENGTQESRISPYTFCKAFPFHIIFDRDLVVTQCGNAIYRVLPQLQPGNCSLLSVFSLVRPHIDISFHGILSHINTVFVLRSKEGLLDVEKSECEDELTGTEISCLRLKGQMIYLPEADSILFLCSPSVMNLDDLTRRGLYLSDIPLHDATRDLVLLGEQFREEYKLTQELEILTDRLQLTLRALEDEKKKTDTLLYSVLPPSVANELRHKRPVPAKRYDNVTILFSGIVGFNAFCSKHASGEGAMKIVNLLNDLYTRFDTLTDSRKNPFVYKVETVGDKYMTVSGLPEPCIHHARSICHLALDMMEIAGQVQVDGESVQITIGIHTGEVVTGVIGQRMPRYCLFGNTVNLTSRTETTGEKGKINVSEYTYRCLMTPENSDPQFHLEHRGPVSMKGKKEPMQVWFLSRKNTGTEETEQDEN
T1 sequence (P19687 1-691): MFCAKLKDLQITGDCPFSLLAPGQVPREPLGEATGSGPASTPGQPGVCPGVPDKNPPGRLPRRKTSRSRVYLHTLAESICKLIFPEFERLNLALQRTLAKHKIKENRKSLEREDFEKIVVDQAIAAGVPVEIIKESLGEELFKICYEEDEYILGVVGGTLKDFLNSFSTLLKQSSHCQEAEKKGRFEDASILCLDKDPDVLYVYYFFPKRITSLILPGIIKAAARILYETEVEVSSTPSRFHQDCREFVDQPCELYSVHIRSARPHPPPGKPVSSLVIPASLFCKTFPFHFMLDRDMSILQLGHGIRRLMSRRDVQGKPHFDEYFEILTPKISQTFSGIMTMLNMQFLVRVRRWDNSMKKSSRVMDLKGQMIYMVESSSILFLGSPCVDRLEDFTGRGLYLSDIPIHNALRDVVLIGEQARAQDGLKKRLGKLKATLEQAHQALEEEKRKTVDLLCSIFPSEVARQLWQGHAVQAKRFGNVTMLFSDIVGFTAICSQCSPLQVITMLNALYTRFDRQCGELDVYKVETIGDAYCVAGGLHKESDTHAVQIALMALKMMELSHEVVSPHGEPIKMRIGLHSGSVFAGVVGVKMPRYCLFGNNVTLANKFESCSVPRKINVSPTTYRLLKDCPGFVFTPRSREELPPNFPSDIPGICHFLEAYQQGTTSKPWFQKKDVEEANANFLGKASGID
Assay: Activation of soluble guanylate cyclase (cGMP enzyme immunoassay)
Format: biochemical
Conditions: test substance 50 μM; sGC isolated from bovine lung; 37° C., 15 to 20 minutes; [cGMP]test substance/[cGMP]control (basal enzyme activity)
Protocol: Activation of Soluble Guanylate Cyclase
The activation of soluble guanylate cyclase (sGC), which catalyzes the conversion of guanosine triphosphate (GTP) to cyclic guanosine monophosphate (cGMP) and pyrophosphate, by the compounds according to the invention was quantified with the aid of an enzyme immunoassay (EIA) from Amersham. For this, the test substances were first incubated with sGC in microtiter plates and then the quantity of the resulting cGMP was determined.
The sGC employed had been isolated from bovine lung (see Methods in Enzymology, Volume 195, p. 377). The test solutions (100 μl per well) contained 50 mM triethanolamine (TEA) buffer (pH 7.5), 3 mM MgCl2, 3 mM reduced glutathione (GSH), 0.1 mM GTP, 1 mM 3-isobutyl-1-methylxanthine (IBMX), suitably diluted enzyme solution and the test substance or, in the control experiments, solvent. […] The absorption of the samples was measured at 450 nm (reference wavelength 620 nm) in a microtiter plate reading apparatus. The cGMP concentration was determined by means of a calibration curve, which was obtained under the same experimental conditions. The activation of the sGC by a test substance is given as n-fold stimulation of the basal enzyme activity which was found in the control experiments (with solvent instead of test substance), calculated according to the formula: n-fold stimulation=[cGMP]test substance/[cGMP]control.

CS(=O)(=O)O.O[C@H]1CC[C@H](Nc2nc(-c3ccc(Cl)cc3)nc3c2CCCC3)CC1 [Example 26, 2-(4-Chlorophenyl)-4-(trans-4-hydroxycyclohexylamino)-5,6,7,8-tetrahydroquinazoline methanesulfonic acid salt]
n-fold stimulation (at c = 50 μM): 28 n-fold
